Here are results for one compound from publication PMC9181915, “Synthesis and Anti-Neuroinflammatory Activity of 1,7-diphenyl-1,4-heptadien-3-ones in LPS-Stimulated BV2 Microglia Via Inhibiting NF-κB/MAPK Signaling Pathways” (Molecules, 2022).

SMILES strings stand for the structures.

The test system of series [1] is IL-6. The series is described as follows: LPS-induced IL-6 release in BV2 cells (ELISA). It is filed as cell-based, mouse. Particulars: 3 µM, 1 h pretreatment, LPS 1 μg/mL 24 h, vs. LPS alone. The procedure: (§1) BV2 microglia cells were seeded at 1 × 10^5 cells/well in a 24-well microplate and incubated overnight. […] CU-19, CU-21 and LPS were configured with DMEM medium (2% FBS). According to the protocol of the manufacturer, supernatant was harvested at the 24th hour for the assay of IL-6, TNF-α and PGE-2 with ELISA kits (Absin Shanghai, China). Briefly, 100 μL of biotinylated antibody reagent and the culture supernatant were added to anti-mouse IL-6, TNF-α and PGE-2-precoated 96-well plates, and the plates were incubated for 2.5 h at room temperature. The plate was washed with a washing buffer and subsequently incubated with 100 μL of the streptavidin–HRP solution for 20 min at room temperature. The plate was washed and incubated with 100 μL of TMB substrate solution for 20 min at room temperature in the dark. The reaction was stopped by adding 50 μL of stop solution, and then the absorbance was measured at 450 nm by a plate reader. The average value was substituted into the standard curve to obtain the […] concentration.

Series [2] deals with TNF-α. The series is described as follows: LPS-induced TNF-α release in BV2 cells (ELISA). The series is classed as cell-based, mouse. Particulars: 3 µM, 1 h pretreatment, LPS 1 μg/mL 24 h, vs. LPS alone. The method, then:
as §1
On the technique in general: An ELISA detects its analyte on a solid surface through an enzyme-linked reagent.

Series [3] concerns PGE-2. The series is described as follows: LPS-induced PGE-2 release in BV2 cells (ELISA). As to conditions: 3 µM, 1 h pretreatment, LPS 1 μg/mL 24 h, vs. LPS alone. It is filed as cell-based, mouse. The procedure:
as §1

Series [4] relates to JNK. The series is described as follows: LPS-induced JNK phosphorylation in BV2 cells (Western blot). The series is classed as cell-based. Particulars: 3 μM, 1 h pretreatment, LPS 1 μg/mL 24 h. The method, then:
(§2) CU-19, CU-21 and LPS were configured with DMEM medium (2% FBS). The cells were collected and washed three times with ice-cold PBS. The lysate (containing 1% protease inhibitor and phosphatase inhibitor) was added to the collected cells for suspension, and the cells were lysed by ultrasonic crusher. Then the cell lysates were centrifuged (14,000 rpm, 10 min, 4 °C) […] and collect the supernatant. Aliquots of the lysates were separated on 10% sodium dodecyl sulphate (SDS)-polyacrylamide gel electrophoresis (PAGE) and then electro blotted onto a polyvinylidene difluoride (PVDF) membrane. The blots were blocked with 5% (w/v) nonfat dry milk for 2 h at room temperature, followed by incubation with specific primary antibodies at 4 °C overnight. Blots were washed with PBST and incubated with secondary antibody for 2 h, after which an ECL reagent was used for chemiluminescent detection.

Series [5] is described as follows: MTT cell viability assay in BV2 microglia cells. It is filed as cell-based. Particulars: mouse, mean ± SD, n = 3. The procedure: (§3) The BV2 microglial cells were purchased from the China Center for Type Culture Collection, CCTCC (Wuhan, Hubei). BV2 microglia cells were incubated in DMEM media supplemented with 10% (v/v) FBS, 100 U/mL penicillin G and […] streptomycin at 37 °C with 5% CO2.
Cell viability assays were evaluated using a 3-(4,5-dimethylthiazol-2-yl)-2,5-diphenyltetrazolium bromide (MTT) assay. BV2 microglia cells were seeded in 96-well plates at a density of 1.6 × 10^5 cells/well in complete medium and incubated for 24 h. Then, the culture medium was sucked and discarded, and sterile PBS was added for washing, and then PBS was removed. Then the cells were treated with different concentrations of target compounds for 24 h. An amount equal to 100 μL of MTT was added to each well and the cells were further incubated for 2–4 h. An amount equal to 150 μL of DMSO was added into a 96-well plate and vibrated with micro-oscillator for 10 min. The optical density (A) was measured at […] on a microplate reader. The inhibitory rate of the various concentrations of agents in BV2 cells was calculated using the following formula:Cell viability (%) = [A492 (sample) − A492 (blank)]/[A492 (control) − A492 (blank)] × 100%
For orientation: Tetrazolium dyes change colour on reduction, which living cells bring about.

Series [6] relates to COX-2. The series is described as follows: LPS-induced COX-2 expression in BV2 cells (Western blot). It is filed as cell-based. As to conditions: 3 μM, 1 h pretreatment, LPS 1 μg/mL 24 h. The method, then: as §2
In general terms: A western blot detects proteins with antibodies after separation by electrophoresis.

In series [7] the test system is iNOS. The series is described as follows: LPS-induced iNOS expression in BV2 cells (Western blot). It is filed as cell-based. As to conditions: 3 μM, 1 h pretreatment, LPS 1 μg/mL 24 h. The method, then:
as §2

The subject of series [8] is p38. The series is described as follows: LPS-induced p38 phosphorylation in BV2 cells (Western blot). It is filed as cell-based. Particulars: 3 μM, 1 h pretreatment, LPS 1 μg/mL 24 h. The method, then: as §2
Series [9] can be described thus: In vivo pharmacokinetic study in rats. Also on record: species or system Sprague–Dawley male rats. The method, then:
After a single intravenous dose of 20 mg/kg, 0.5 mL of blood was obtained from the fossa orbitalis veniplex of rats at 5, 10, 20, 30, 45, 60, 120, 180 and 240 min. HPLC was used to determine the concentration of each compound in plasma and the DAS software was used for the noncompartmental pharmacokinetic analysis of the plasma concentration–time data.
Sprague–Dawley male rats, 200–240 g, were housed in cages in an airconditioned room with light dark cycle of 12 h before the experiment started. The animals were fasted for 12 h with water ad libitum. […] The administration volume was 6 mL per kg of body weight. The compounds were dissolved in PEG400 (10% of the administration volume) and water (90% of the administration volume) and sonicated for 30 min. After tail vein injection administration at a dose of 20 mg/kg, 0.5 mL blood was obtained from fossa orbitalis veniplex of rats at 5, 10, 20, 30, 45, 60, 120, 180 and 240 min. Whole blood samples were collected in heparinized tubes and the plasma was immediately centrifuged (10,000 rpm, 10 min, 4 °C) and then stored at −20 °C until analysis. The calibration standards and the plasma samples were extracted by protein precipitation using methanol.

For series [10], the system named is LPS-induced NO release in BV2 cells. The series is described as follows: Inhibition of LPS-induced NO release in BV2 cells. Particulars: Mus musculus, BV-2. It is filed as cell-based. The method, then: as §3
Nitrite, a stable product of nitric oxide, was used to assess NO production. To study the effects of the compounds on NO production, BV2 microglia cells in the logarithmic phase were plated at 1 × 10^5 cells/well in a 24-well microplate and incubated in DMEM medium (10% FBS) overnight. The cells were pretreated with various concentrations of the test compounds for 1 h and further co-cultured with 1 μg/mL LPS and 5% CO2 for 24 h in a 37 °C incubator; then, the supernatant was taken and stored at −20 °C for NO detection. The target compound and LPS were configured with DMEM medium (2% FBS). The determination of NO was carried out according to the instructions. Unpretreated and unstimulated BV2 microglia cells were conducted as the blank control group. The absorbance value was determined at 540 nm, and the corresponding NO content was calculated by using the standard curve. The NO inhibitory rate of the various concentrations of agents in BV2 cells was calculated as per the following formula:Inhibition rate (%) = (LPS(NO concentration) − sample(NO concentration))/(LPS(NO concentration) − negative control(NO concentration)) × 100%.

The test system of series [11] is NF-κB. The series is described as follows: LPS-induced NF-κB nuclear translocation in BV2 cells (immunofluorescence). The series is classed as cell-based. As to conditions: 3 μM with LPS, 24 h. The method, then:
CU-19, CU-21 and LPS were configured with DMEM medium (2% FBS). After 24 h of treatment, cells were fixed with 4% paraformaldehyde for 18 min and washed three times with PBS (5 min per wash). The fixed cells were then permeabilized in […] for 15 min and washed three times with PBS (5 min per wash). Nonspecific binding sites were blocked with 5% goat serum for 30 min. These cells were then incubated with anti-NF-κB antibody at a dilution of 1:400 overnight at 4 °C. After washing with PBS three times, cells were incubated with fluorescent-conjugated secondary antibody (1:150) for 1 h, and counterstained with DAPI (1:50) at room temperature for 15 min in the dark. Cells were then washed and imaged via confocal microscopy.

Series [12] deals with ERK. The series is described as follows: LPS-induced ERK phosphorylation in BV2 cells (Western blot). It is filed as cell-based. Particulars: 3 μM, 1 h pretreatment, LPS 1 μg/mL 24 h. The method, then:
as §2

Where [13] appears, read: male, Sprague-Dawley, rat plasma, single intravenous dose 20 mg/kg, mean ± SD, n = 4.

`COc1ccc(CC/C=C/C(=O)/C=C/c2ccccc2)cc1` [CU-21, (1E,4E)-7-(4-methoxyphenyl)-1-phenyl-1,4-heptadien-3-one]: the melting point was 58 to 60 °C. The “Inhibition of LPS-induced IL-6 release” value in [1] is given as “significantly inhibited”. Moreover, the “Inhibition of LPS-induced TNF-α release” value in series [2] was “significantly inhibited”. Moreover, in series [3], the “Inhibition of LPS-induced PGE-2 release” value was “significantly inhibited”. The “JNK phosphorylation compared to the LPS group” value in [4] was “significantly decreased”. Also, the viability at 24 h, 1 µM in [5] (1 µM) was 96.94 ± 0.01%. For the same compound, in series [5] (3 µM), the viability at 24 h, 3 µM is 94.55 ± 0.09%. The compound further showed a viability at 24 h, 10 µM in series [5] (10 µM) of 77.89 ± 0.5%. Further, in series [6], the “Inhibition of LPS-induced COX-2 expression” value is recorded as “significantly inhibited”. The “Inhibition of LPS-induced iNOS expression” value in [7] is “significantly inhibited”. In addition, the “p38 phosphorylation compared to the LPS group” value in series [8] is listed as “significantly decreased”. In series [9] (setting [13]), this compound had an AUC(0-inf) of 3.53 µg·h/mL, an AUC(0-t) of 2.83 µg·h/mL, a Cmax of 6.85 ± 0.634 µg/mL and a half-life of 2.72 ± 0.613 h. For the same compound, the MRT last in [9] (male, Sprague-Dawley, rat plasma, single intravenous dose 20 mg/kg, mean ± SD, n = 4, read-out: MRT (0-t) (converted)) was 0.757 h. Further, the MRT inf in series [9] (male, Sprague-Dawley, rat plasma, single intravenous dose 20 mg/kg, mean ± SD, n = 4, read-out: MRT (0-∞) (converted)) was 2.32 h. The “Metabolites detected in plasma by HPLC” value in series [9] (rat plasma after intravenous 20 mg/kg, chromatograms at 5, 10, 20 min (Figures S1–S9)) is “no obvious metabolites”. Moreover, the “Increase of T1/2 in comparison with that of CU” value in series [9] (rat, single intravenous dose 20 mg/kg) came to 5.5 fold. In addition, the inhibition at 3 µM in [10] (3 µM, pretreated 1 h, then LPS 1 μg/mL for 24 h, BV2 cells) stood at 66.1%. Moreover, the IC50 in series [10] (BV2 cells, 0.3, 1.0, 3.0 μM, LPS 1 μg/mL 24 h, mean ± SD, n = 3, read-out: IC50 to inhibit LPS-induced NO release) was 1.74 ± 0.66 µM. The “Inhibition of LPS-induced NF-κB nuclear translocation” value in series [11] is “able to inhibit NF-κB nuclear translocation”. The “ERK phosphorylation compared to the LPS group” value in series [12] is “significantly decreased”.

The viability is the share of living cells, or the viability signal relative to a control. Read a high viability as better survival. As a reminder, the melting point is the temperature, or range, at which the solid turns liquid. Usually AUC(0-inf) stands for total exposure, with the tail of the curve extrapolated. A high value points to high exposure. Usually AUC(0-t) stands for the area under the concentration-time curve up to a stated or last time point. Low readings indicate less exposure, high ones more exposure. By Cmax is commonly meant the peak of the concentration-time curve. The term half-life denotes the time in which the quantity being followed falls by half. Higher therefore signals slow decline. For orientation: inhibition means the share of the control response that was lost under treatment. As usually defined, the IC50 is the concentration at which inhibition is half-maximal.
